Measurements from patent US8367328B2, “Method for synthesizing DNA” (Takara Bio Inc., priority 1998, dated 2013).

Biological target: T1, Pfu DNA Polymerase II (Pyrococcus furiosus, UniProt P81409+P81412)
T1 construct: made in house; host or cells: Escherichia coli JM109/pFU1001 (FERM BP-5579)
T1 sequence (P81409 1-1263): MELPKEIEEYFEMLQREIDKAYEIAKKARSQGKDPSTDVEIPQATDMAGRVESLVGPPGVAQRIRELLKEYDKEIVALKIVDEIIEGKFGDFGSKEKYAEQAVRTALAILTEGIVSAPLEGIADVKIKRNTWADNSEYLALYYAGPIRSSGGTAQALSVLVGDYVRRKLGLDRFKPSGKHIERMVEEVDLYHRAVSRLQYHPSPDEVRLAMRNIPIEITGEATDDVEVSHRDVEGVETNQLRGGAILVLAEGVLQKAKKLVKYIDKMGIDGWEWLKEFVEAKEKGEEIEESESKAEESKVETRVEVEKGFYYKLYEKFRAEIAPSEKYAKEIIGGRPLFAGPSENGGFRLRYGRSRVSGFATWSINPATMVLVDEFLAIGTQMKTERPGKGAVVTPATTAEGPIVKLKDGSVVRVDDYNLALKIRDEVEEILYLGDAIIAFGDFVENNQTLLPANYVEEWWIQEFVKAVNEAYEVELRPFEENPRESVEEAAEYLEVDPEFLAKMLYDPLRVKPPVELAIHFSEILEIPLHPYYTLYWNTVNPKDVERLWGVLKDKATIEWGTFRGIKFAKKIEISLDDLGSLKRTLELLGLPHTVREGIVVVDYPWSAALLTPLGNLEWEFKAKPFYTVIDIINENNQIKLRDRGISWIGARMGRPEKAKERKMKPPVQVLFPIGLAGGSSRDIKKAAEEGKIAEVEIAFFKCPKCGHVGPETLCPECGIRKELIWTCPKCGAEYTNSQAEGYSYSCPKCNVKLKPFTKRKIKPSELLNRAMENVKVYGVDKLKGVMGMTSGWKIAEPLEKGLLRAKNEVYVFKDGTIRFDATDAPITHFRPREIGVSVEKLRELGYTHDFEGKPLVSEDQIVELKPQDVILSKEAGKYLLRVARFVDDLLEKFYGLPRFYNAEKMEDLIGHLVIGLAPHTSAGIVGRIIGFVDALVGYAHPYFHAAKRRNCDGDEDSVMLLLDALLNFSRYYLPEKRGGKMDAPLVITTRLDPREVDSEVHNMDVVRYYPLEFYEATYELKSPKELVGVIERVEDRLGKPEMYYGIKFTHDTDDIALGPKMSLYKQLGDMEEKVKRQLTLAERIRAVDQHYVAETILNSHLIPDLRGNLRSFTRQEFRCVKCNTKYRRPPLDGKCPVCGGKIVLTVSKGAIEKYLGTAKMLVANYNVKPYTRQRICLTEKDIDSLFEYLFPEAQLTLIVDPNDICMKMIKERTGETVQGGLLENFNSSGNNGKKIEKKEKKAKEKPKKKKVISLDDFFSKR
T1 sequence (P81412 1-613): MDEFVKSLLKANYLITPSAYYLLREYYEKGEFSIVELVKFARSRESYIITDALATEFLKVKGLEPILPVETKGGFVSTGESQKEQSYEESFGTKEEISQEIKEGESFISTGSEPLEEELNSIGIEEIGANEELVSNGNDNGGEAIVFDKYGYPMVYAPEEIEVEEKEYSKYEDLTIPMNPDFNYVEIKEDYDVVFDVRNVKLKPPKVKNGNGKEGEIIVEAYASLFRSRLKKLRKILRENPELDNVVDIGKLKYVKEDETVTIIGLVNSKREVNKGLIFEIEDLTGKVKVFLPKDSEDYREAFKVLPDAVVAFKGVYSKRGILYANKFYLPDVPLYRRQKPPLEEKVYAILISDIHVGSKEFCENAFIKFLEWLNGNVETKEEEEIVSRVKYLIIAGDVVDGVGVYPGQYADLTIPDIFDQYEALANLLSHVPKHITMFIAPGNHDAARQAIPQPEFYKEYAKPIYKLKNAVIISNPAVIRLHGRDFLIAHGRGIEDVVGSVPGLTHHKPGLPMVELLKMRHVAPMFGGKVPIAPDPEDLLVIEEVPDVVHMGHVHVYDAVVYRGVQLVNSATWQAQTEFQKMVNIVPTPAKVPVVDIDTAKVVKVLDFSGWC
Assay: PCR with Pfu DNA Polymerase II in the presence of acidic substances (λDNA template)
Type: biochemical
Conditions: 0.5 kb fragment; 100 pg λDNA, primers λ1/λ2, 25 cycles 98°C 5 s–66°C 15 s; amount added 1 μg
Procedure: A reaction mixture comprising λDNA as a template, primers λ1 and λ3 as a primer pair, and Pfu DNA Polymerase II as DNA polymerase was prepared, and PCR was carried out. The composition of the reaction mixture is as follows.
10 mM Tris-hydrochloric acid (pH 9.2), 75 mM potassium chloride, 6 mM magnesium chloride, 0.4 mM each of dATP, dCTP, dGTP and dTTP, 0.01% BSA, 1.25 U of Pfu DNA Polymerase II, 500 pg of λDNA, and 5 pmol each of primers λ1 and λ3 (a final volume being 25 μl). […]
Using the sulfated-fucose-containing Polysaccharide-F obtained in Example 6 described above, dextran sulfate powder (manufactured by Onco), or sodium alginate (100 to 150 centipoises, manufactured by Wako Pure Chemicals), the effects of these acidic substances on the activity of Pfu DNA Polymerase II were examined. A reaction mixture comprising λDNA as a template, primers λ1 and λ2 as a primer pair, and Pfu DNA Polymerase II as DNA polymerase was prepared, and PCR was carried out. The composition of the reaction mixture is as follows.
10 mM Tris-hydrochloric acid, pH 9.2, 75 mM potassium chloride, 6 mM magnesium chloride, 0.4 mM each of dATP, dCTP, dGTP and dTTP, 0.01% BSA, 1.25 U of Pfu DNA Polymerase II, 100 pg of λDNA, and 5 pmol each of primers λ1 and λ2 (a final volume being 25 μl). Further, 10 ng of the sulfated-fucose-containing polysaccharide-F, 10 ng of dextran sulfate powder, or 1 μg of sodium alginate was respectively added to the above reaction mixture.
The reaction in 25 cycles was carried out for each of these reaction mixtures, wherein one cycle of reaction comprises a process consisting of 98° C., 5 seconds—66° C., 15 seconds. Thereafter, 5 μl of the resulting reaction mixture was subjected to electrophoresis on 1% agarose gel containing ethidium bromide in an amount of 0.00005%, whereby an amplified fragment was confirmed.
Further, studies were conducted on the effects of the sulfated-fucose-containing polysaccharide-F obtained in Example 6 described above, the sulfated-fucose-containing polysaccharide-U obtained in Example 7 described above, or sodium polyglutamate (manufactured by Sigma) as an acidic substance. A reaction mixture for PCR was prepared in the same manner as described above except for changing the amount of template λDNA to 500 pg and the primer pairs to primers λ1 and λ3. Five nanograms of the sulfated-fucose-containing polysaccharide-F, 5 ng, 10 ng, 20 ng or 30 ng each of the sulfated-fucose-containing polysaccharide-U, or 250 ng, 500 ng, 750 ng or 1000 ng each of sodium polyglutamate was respectively added to the above reaction mixture.
The reaction was carried out in 30 cycles, wherein one cycle of reaction comprises a process consisting of 98° C., 5 seconds—66° C., 15 seconds. After the termination of the reaction, 5 μl of the resulting reaction mixture was subjected to electrophoresis on 1% agarose gel containing ethidium bromide in an amount of 0.00005%, whereby an amplified fragment was confirmed.
Using the sulfated-fucose-containing polysaccharide-F obtained in Example 6 described above, the effects on the activity of Pfu DNA Polymerase II were examined. A reaction mixture comprising λDNA as a template, primers λ1 and λ2 as a primer pair, and Pfu DNA Polymerase II as DNA polymerase was prepared, and PCR was carried out. The composition of the reaction mixture is as follows.
10 mM Tris-hydrochloric acid, pH 9.2, 75 mM potassium chloride, 6 mM magnesium chloride, 0.4 mM each of dATP, dCTP, dGTP and dTTP, 0.01% BSA, 1.25 U of Pfu DNA Polymerase II, 500 pg of λDNA, and 5 pmol each of primers λ1 and λ2 (a final volume being 25 μl). Further, 10 ng of the sulfated-fucose-containing polysaccharide-F was respectively added to the above reaction mixture.
The reaction in 30 cycles was carried out for each of these reaction mixtures, wherein one cycle of reaction comprises a process consisting of 98° C., 5 seconds—66° C., 15 seconds. […]

sodium alginate
Amplification Results: + (Amplification being observed)
